Data published in patent US8361802B2, “Fluorescent ozone sensor” (University of Pittsburgh—Of the Commonwealth System of …, priority 2009, dated 2013).

How the values were obtained:
[1] = Ozone detection method, fluorescence turn-on of sensor in aqueous buffer / cell culture media
Description: In order to develop a fluorescent method amenable to both biological and atmospheric detection, pH 7 buffer ([PO4^3−]=5 mM) is chosen to perform the conversion of sensor 4, such as homoallyl ether, to fluorescent compound 7. A solution of sensor 4 in 5:95 MeOH/pH 7 buffer at 24° C. is exposed to ozone, incubated at 37° C. for 1 hour to facilitate β-elimination, and formation of fluorescent compound 7 is observed (signal-to-background (S/B)=Sample B (28)/Sample A (0.35)=80) (FIG. 2a). For an ozone detection method in the presence of cells, the ozonolysis reaction is performed in a mixture of pH 7 buffer and RPMI-1640 cell culture media (3:1).
Ozone detection method. Solutions of compound 4 ([4]final=12.5 μM) in 5:95 MeOH/pH 7 buffer ([PO4^3−]=5 mM) solution (4.0 mL) were prepared, and the samples were exposed to ozone at 24° C. followed by 1 hour incubation at 37° C. before fluorescence measurement (except for the ambient air experiments). The concentration of ozone was 5 μM for these studies. Fluorescence spectra were recorded in a 1×1-cm disposable cuvette on a Jobin Yvon FluoroMax-3 spectrometer under the control of a Windows-based PC running FluorEssence software. The samples were excited at 497 nm and the emission intensities were collected at 523 nm. All spectra were corrected for emission intensity using the manufacturer supplied photomultiplier curves.
Ozone: Solution A (5.0 μL, [compound 4 or compound 8]final=12.5 μM) was added to a mixture of MeOH/pH 7 buffer ([PO4^3−]=5 mM) (5:95) (4.0 mL), and the samples were exposed to ozone (˜5 μM) at 24° C. followed by 1 hour incubation at 37° C. before fluorescence measurement.

[2] = Concentration dependence / sensitivity of fluorescent ozone detection; conditions: MeOH/pH 7 buffer (5:95), samples diluted 10-fold
Description: FIG. 2B is a correlation between fluorescent intensity and ozone in 5:95 MeOH/pH 7 buffer after ten-fold dilution of original samples. The linear correlation is y=0.000900x+0.0467; R^2=0.987; average standard deviation=0.00844. The intensity continued to be linear up to 12.5 μM.
The present invention the sensitivity of our fluorescent method for ozone detection was examined. The fluorescent intensity correlated to the concentration of ozone in the 50 nM-12.5 μM (2.4-600 ppbv) range with S/B of 2.6-310 after 10-fold dilution of the original samples (0-500 nM shown in FIG. 2B). The level of detection is 59 nM (2.9 ppbv; S/B=3) and the level of quantitation is 340 nM (16 ppbv; S/B=10).
Concentration dependence. […] Error bars were determined from the calculated mean and standard deviation (Prism 5.0a, GraphPad Software, Inc.).

[3] = Ozone detection in nasal fluid; conditions: ozone ~5 μM
Description: FIG. 2D illustrates Ozone detection in nasal fluid, wherein Left Sample: 4, no ozone; Right Sample: 4, + ozone.
One embodiment of the present invention is a biomedical probe to detect ozone. Since ozone is believed to be much too reactive to reach and permeate the epithelial cells, ozone detection in the presence of various antioxidants that are found in the epithelial lining fluid was attempted. […] Nasal fluid was tested to more accurately mimic the epithelial lining fluid of the lung.
Ozone detection in human pleural fluid. Human pleural fluid (1.0 mL) was diluted in pH 7 buffer ([PO4^3−]=5 mM) (3.0 mL). Solution A (5.0 μL, [compound 4]final=12.5 μM) was added to the resulting human pleural fluid mixture, and the samples were exposed to ozone (˜5 μM) at 24° C. followed by 1 hour incubation at 37° C. before fluorescence measurement. The experiment was performed in triplicate with an illustration of one of the tests represented in FIG. 2D.

Relative quantum yields = assay type: physicochemical; conditions: relative to fluorescein; phosphate buffer pH=7.0, excited at 490 nm
Description: Relative Quantum Yields. To determine quantum yields relative to fluorescein, a stock solution of compound 4 was prepared in DMSO (1 mM) and diluted in phosphate buffer (pH=7.0) to OD490=0.09. The samples were excited at 490 nm and the integrated emission spectra were compared. The quantum yields of all compounds were referenced to fluorescein in 0.1 N NaOH (Φ=0.95). The quantum yield for compound 4 was calculated as 0.00132

- quantum yield (Relative quantum yields): 0.00132
SMILES: C=CCCOc1cc2oc3cc(=O)c(Cl)cc-3c(-c3ccccc3CO)c2cc1Cl [compound 4]
- fluorescent intensity at 523 nm, Sample A (no ROS) ([1]; 12.5 μM sensor, 5:95 MeOH/pH 7 buffer, no ozone (background)): 0.35 a. u.×10^5
- fluorescent intensity at 523 nm, Sample B (ozone) ([1]; 12.5 μM sensor, 5:95 MeOH/pH 7 buffer, ozone at 24° C. then 1 hour at 37° C.): 28 a. u.×10^5
- signal-to-background (S/B) ([1]; 5:95 MeOH/pH 7 buffer, ozone at 24° C. then 1 hour at 37° C.): 80
- signal-to-background (S/B) ([1]; mixture of pH 7 buffer and RPMI-1640 cell culture media (3:1)): 104
- background signal (fluorescence intensity, λem=523 nm) [2]: 0.0377×10^5
- S/B [3]: 92
